Counter-ions that a name gives are not always drawn. Blank lines part the entries; values can stand above or below the compound they belong to.
Experiments:
[1] = biological target: T1, human factor XIa (Homo sapiens, UniProt P03951); experiment: Measurement of FXIa inhibition (fluorogenic peptide substrate Boc-Glu(OBzl)-Ala-Arg-AMC); type: biochemical; settings: factor XIa from Kordia, 15 min preincubation, 30 min at 22° C., fluorescence
T1 construct: purchased Kordia
Protocol: The factor XIa inhibition of the inventive substances is determined using a biochemical test system which utilizes the reaction of a peptidic factor XIa substrate to determine the enzymatic activity of human factor XIa. Here, factor XIa cleaves from the peptic factor XIa substrate the C-terminal aminomethylcoumarin (AMC), the fluorescence of which is measured. The determinations are carried out in microtitre plates.
Test substances are dissolved in dimethyl sulphoxide and serially diluted in dimethyl sulphoxide (3000 μM to 0.0078 μM; resulting final concentrations in the test: 50 μM to 0.00013 μM). In each case 1 μl of the diluted substance solutions is placed into the wells of white microtitre plates from Greiner (384 wells). Subsequently, the following are added successively: 20 μl of assay buffer (50 mmol/l Tris buffer pH 7.4; 100 mmol/l sodium chloride; 5 mmol/l calcium chloride; 0.1% bovine serum albumin) and 20 μl of factor XIa from Kordia (0.45 nM in assay buffer). After 15 min of incubation, the enzyme reaction is started by addition of 20 μl of the factor XIa substrate Boc-Glu(OBzl)-Ala-Arg-AMC dissolved in assay buffer (10 μM in assay buffer) from Bachem, the mixture is incubated at room temperature (22° C.) for 30 min and fluorescence is then measured (excitation: 360 nm, emission: 460 nm). The measured emissions of the test mixtures with test substance are compared to those of control mixtures without test substance (only dimethyl sulphoxide instead of test substance in dimethyl sulphoxide), and the IC50 values are calculated from the concentration/activity relationships.

[2] = test system: human and animal plasma; experiment: Determination of anticoagulatory activity: activated partial thromboplastin time (aPTT) in plasma; settings: concentration of test substance which brings about a 1.5-fold extension of the aPTT; plasma species not given
Protocol: The anticoagulatory activity of the test substances is determined in vitro in human and animal plasma (for example mouse, rat, rabbit, pig and dog plasma). To this end, blood is drawn off in a mixing ratio of sodium citrate/blood of 1:9 using a 0.11 molar sodium citrate solution as receiver. Immediately after the blood has been drawn off, it is mixed thoroughly and centrifuged at about 4000 g for 15 minutes. The supernatant is pipetted off.
The activated partial thromboolastin time (aPTT) is determined in the presence of varying concentrations of test substance or the corresponding solvent using a commercial test kit (C. K. Prest from Diagnostica Stago). The test compounds are incubated with the plasma and the PTT reagent (cephalin, kaolin) at 37° C. for 3 minutes. Coagulation is then started by addition of a 25 mM aqueous calcium chloride solution, and the time when coagulation occurs is determined. The concentration of test substance which brings about a 1.5-fold extension of the aPTT is determined.

T1 sequence (P03951 388-625 limits assumed): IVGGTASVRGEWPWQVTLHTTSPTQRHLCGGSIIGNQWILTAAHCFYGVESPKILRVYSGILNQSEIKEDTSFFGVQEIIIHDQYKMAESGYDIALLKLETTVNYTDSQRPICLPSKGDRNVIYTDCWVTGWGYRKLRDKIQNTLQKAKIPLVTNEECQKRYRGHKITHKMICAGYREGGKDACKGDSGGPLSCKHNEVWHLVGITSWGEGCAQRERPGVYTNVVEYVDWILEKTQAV
T1 sequence (P03951 19-387 partner limits assumed): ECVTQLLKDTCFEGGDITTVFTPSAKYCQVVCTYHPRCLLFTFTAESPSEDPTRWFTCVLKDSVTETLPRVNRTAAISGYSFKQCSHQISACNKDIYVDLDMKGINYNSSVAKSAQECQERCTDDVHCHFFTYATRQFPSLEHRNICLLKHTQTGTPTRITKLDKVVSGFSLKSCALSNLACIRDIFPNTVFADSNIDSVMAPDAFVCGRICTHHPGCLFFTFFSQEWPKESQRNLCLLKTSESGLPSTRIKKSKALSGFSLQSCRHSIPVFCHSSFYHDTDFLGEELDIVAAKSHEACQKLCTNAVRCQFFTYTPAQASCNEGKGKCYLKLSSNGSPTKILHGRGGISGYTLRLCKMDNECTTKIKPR

Compound: Cc1cc(C(=O)NCCN)ccc1-c1ccc(C[C@H](NC(=O)[C@H]2CC[C@H](CN)CC2)C(=O)Nc2ccc(-c3nn[nH]n3)cc2)cc1 [Example 15, N-(2-Aminoethyl)-4′-[(2S)-2-({[trans-4-(aminomethyl)cyclohexyl]carbonyl}amino)-3-oxo-3-{[4-(2H-tetrazol-5-yl)phenyl]amino}propyl]-2-methylbiphenyl-4-carboxamide hydrochloride]
IC50 [1]: 2.9 nM
aPTT [2]: 0.09 µmol/L

IC50 [1]: 3.9 nM
Compound: Cc1cc(C(=O)N2CCNCC2)ccc1-c1ccc(C[C@H](NC(=O)[C@H]2CC[C@H](CN)CC2)C(=O)Nc2ccc(-c3nn[nH]n3)cc2)cc1 [Example 16, trans-4-(Aminomethyl)-N-[(2S)-3-[2′-methyl-4′-(piperazin-1-ylcarbonyl)biphenyl-4-yl]-1-oxo-1-{[4-(2H-tetrazol-5-yl)phenyl]amino}propan-2-yl]cyclohexanecarboxamide hydrochloride]
aPTT [2]: 0.23 µmol/L

Compound: Cc1cc(C(=O)NCCO)ccc1-c1ccc(C[C@H](NC(=O)[C@H]2CC[C@H](CN)CC2)C(=O)Nc2ccc3cn[nH]c3c2)cc1 [Example 17, 4′-[(2S)-2-({[trans-4-(Aminomethyl)cyclohexyl]carbonyl}amino)-3-(1H-indazol-6-ylamino)-3-oxopropyl]-N-(2-hydroxyethyl)-2-methylbiphenyl-4-carboxamide hydrochloride]
IC50 [1]: 6.1 nM
aPTT [2]: 0.35 µmol/L

IC50 [1]: 3.7 nM
Compound: Cc1cc(C(=O)NCCO)ccc1-c1ccc(C[C@H](NC(=O)[C@H]2CC[C@H](CN)CC2)C(=O)Nc2ccc(-c3nn[nH]n3)cc2)cc1 [Example 18, 4′-[(2S)-2-({[trans-4-(Aminomethyl)cyclohexyl]carbonyl}amino)-3-oxo-3-{[4-(2H-tetrazol-5-yl)phenyl]amino}propyl]-N-(2-hydroxyethyl)-2-methylbiphenyl-4-carboxamide hydrochloride]
aPTT [2]: 0.16 µmol/L

Compound: Cc1cc(C(=O)NC2CCNCC2)ccc1-c1ccc(C[C@H](NC(=O)[C@H]2CC[C@H](CN)CC2)C(=O)Nc2ccc3c(=O)[nH][nH]c3c2)cc1 [Example 22, 4′-{(2S)-2-({[trans-4-(Aminomethyl)cyclohexyl]carbonyl}amino)-3-oxo-3-[(3-oxo-2,3-dihydro-1H-indazol-6-yl)amino]propyl}-2-methyl-N-(piperidin-4-yl)biphenyl-4-carboxamide hydrochloride]
IC50 [1]: 15 nM
aPTT [2]: 0.06 µmol/L

Compound: CCN(CC)CCNC(=O)c1ccc(-c2ccc(C[C@H](NC(=O)[C@H]3CC[C@H](CN)CC3)C(=O)Nc3ccc4c(=O)[nH][nH]c4c3)cc2)c(C)c1 [Example 23, 4′-{(2S)-2-({[trans-4-(Aminomethyl)cyclohexyl]carbonyl}amino)-3-oxo-3-[(3-oxo-2,3-dihydro-1H-indazol-6-yl)amino]propyl}-N-[2-(diethylamino)ethyl]-2-methylbiphenyl-4-carboxamide hydrochloride]
IC50 [1]: 27.5 nM
aPTT [2]: 0.28 µmol/L

Compound: CCN(CC)CCCNC(=O)c1ccc(-c2ccc(C[C@H](NC(=O)[C@H]3CC[C@H](CN)CC3)C(=O)Nc3ccc4c(=O)[nH][nH]c4c3)cc2)c(C)c1 [Example 24, 4′-{(2S)-2-({[trans-4-(Aminomethyl)cyclohexyl]carbonyl}amino)-3-oxo-3-[(3-oxo-2,3-dihydro-1H-indazol-6-yl)amino]propyl}-N-[3-(diethylamino)propyl]-2-methylbiphenyl-4-carboxamide hydrochloride]
IC50 [1]: 18 nM
aPTT [2]: 0.31 µmol/L

Compound: Cc1cc(C(=O)N[C@H]2CCNC2)ccc1-c1ccc(C[C@H](NC(=O)[C@H]2CC[C@H](CN)CC2)C(=O)Nc2ccc3c(=O)[nH][nH]c3c2)cc1 [Example 25, 4′-{(2S)-2-({[trans-4-(Aminomethyl)cyclohexyl]carbonyl}amino)-3-oxo-3-[(3-oxo-2,3-dihydro-1H-indazol-6-yl)amino]propyl}-2-methyl-N-[(3S)-pyrrolidin-3-yl]biphenyl-4-carboxamide hydrochloride]
IC50 [1]: 14 nM
aPTT [2]: 0.14 µmol/L

Compound: COCCOCCOCCOCCNC(=O)c1ccc(-c2ccc(C[C@H](NC(=O)[C@H]3CC[C@H](CN)CC3)C(=O)Nc3ccc(-c4nn[nH]n4)cc3)cc2)c(Cl)c1 [Example 26, 4′-[(2S)-2-({[trans-4-(Aminomethyl)cyclohexyl]carbonyl}amino)-3-oxo-3-{[4-(2H-tetrazol-5-yl)phenyl]amino}propyl]-2-chloro-N-(2,5,8, 11-tetraoxatridecan-13-yl)biphenyl-4-carboxamide hydrochloride]
IC50 [1]: 2.4 nM
aPTT [2]: 0.19 µmol/L

Compound: COCCOCCOCCOCCNC(=O)c1ccc(-c2ccc(C[C@H](NC(=O)[C@H]3CC[C@H](CN)CC3)C(=O)Nc3ccc(-c4nn[nH]n4)cc3)cc2)c(C)c1 [Example 27, 4′-[(2S)-2-({[trans-4-(Aminomethyl)cyclohexyl]carbonyl}amino)-3-oxo-3-{[4-(2H-tetrazol-5-yl)phenyl]amino}propyl]-2-methyl-N-(2,5,8,11-tetraoxatridecan-13-yl)biphenyl-4-carboxamide hydrochloride]
IC50 [1]: 2.8 nM
aPTT [2]: 0.24 µmol/L

Compound: COCCOCCOCCOCCNC(=O)c1ccc(-c2ccc(C[C@H](NC(=O)[C@H]3CC[C@H](CN)CC3)C(=O)Nc3ccc4c(=O)[nH][nH]c4c3)cc2)c(C)c1 [Example 28, 4′-{(2S)-2-({[trans-4-(Aminomethyl)cyclohexyl]carbonyl}amino)-3-oxo-3-[(3-oxo-2,3-dihydro-1H-indazol-6-yl)amino]propyl}-2-methyl-N-(2,5,8,11-tetraoxatridecan-13-yl)biphenyl-4-carboxamide hydrochloride]
IC50 [1]: 14 nM
aPTT [2]: 0.33 µmol/L

IC50 [1]: 3 nM
Compound: CCN(CC)CCCNC(=O)c1ccc(-c2ccc(C[C@H](NC(=O)[C@H]3CC[C@H](CN)CC3)C(=O)Nc3ccc(-c4nn[nH]n4)cc3)cc2)c(C)c1 [Example 29, 4′-[(2S)-2-({[trans-4-(Aminomethyl)cyclohexyl]carbonyl}amino)-3-oxo-3-{[4-(2H-tetrazol-5-yl)phenyl]amino}propyl]-N-[3-(diethylamino)propyl]-2-methylbiphenyl-4-carboxamide hydrochloride]
aPTT [2]: 0.14 µmol/L

Compound: CC1CC(NC(=O)c2ccc(-c3ccc(C[C@H](NC(=O)[C@H]4CC[C@H](CN)CC4)C(=O)Nc4ccc(-c5nn[nH]n5)cc4)cc3)c(Cl)c2)CCN1 (stereo partly drawn) [Example 30, 4′-[(2S)-2-({[trans-4-(Aminomethyl)cyclohexyl]carbonyl}amino)-3-oxo-3-{[4-(2H-tetrazol-5-yl)phenyl]amino}propyl]-2-chloro-N-(2-methylpiperidin-4-yl)biphenyl-4-carboxamide hydrochloride]
IC50 [1]: 3.2 nM
aPTT [2]: 0.12 µmol/L

Compound: Cc1cc(C(=O)NC2CCNC(C)C2)ccc1-c1ccc(C[C@H](NC(=O)[C@H]2CC[C@H](CN)CC2)C(=O)Nc2ccc3c(=O)[nH][nH]c3c2)cc1 (stereo partly drawn) [Example 31, 4′-{(2S)-2-({[trans-4-(Aminomethyl)cyclohexyl]carbonyl}amino)-3-oxo-3-[(3-oxo-2,3-dihydro-1H-indazol-6-yl)amino]propyl}-2-methyl-N-(2-methylpiperidin-4-yl)biphenyl-4-carboxamide hydrochloride]
IC50 [1]: 30 nM
aPTT [2]: 0.22 µmol/L

Compound: Cc1cc(C(=O)NC2CCNC(C)C2)ccc1-c1ccc(C[C@H](NC(=O)[C@H]2CC[C@H](CN)CC2)C(=O)Nc2ccc(-c3nn[nH]n3)cc2)cc1 (stereo partly drawn) [Example 32, 4′-[(2S)-2-({[trans-4-(Aminomethyl)cyclohexyl]carbonyl}amino)-3-oxo-3-{[4-(2H-tetrazol-5-yl)phenyl]amino}propyl]-2-methyl-N-(2-methylpiperidin-4-yl)biphenyl-4-carboxamide hydrochloride]
IC50 [1]: 3.4 nM
aPTT [2]: 0.09 µmol/L

Compound: Cc1cc(C(=O)N[C@H]2CC[C@H](O)CC2)ccc1-c1ccc(C[C@H](NC(=O)[C@H]2CC[C@H](CN)CC2)C(=O)Nc2ccc(-c3nn[nH]n3)cc2)cc1 [Example 33, 4′-[(2S)-2-({[trans-4-(Aminomethyl)cyclohexyl]carbonyl}amino)-3-oxo-3-{[4-(2H-tetrazol-5-yl)phenyl]amino}propyl]-N-(trans-4-hydroxycyclohexyl)-2-methylbiphenyl-4-carboxamide hydrochloride]
IC50 [1]: 0.78 nM
aPTT [2]: 0.11 µmol/L
